Results: patent US20260285872A1, “COMPOUNDS AND METHODS FOR DEGRADING GSPT1” (priority 2023, published 2026)
pIC50: −log10 of the molar value. Read-outs that look alike come from different tables or passages of the source.

Tests used:
GSPT1 = GSPT1 (Homo sapiens, UniProt P15170+Q96SW2); assay type: cell-based
Method: GSPT1_HiBIT_HEK293 cells were culture in DMEM medium with 10% FBS under standard tissue culture conditions. […] GSPT1 level was determined in along with the Nano-Glo HiBiT Lytic Detection system [Promega N3050] with final concentration of 1×. The luminescence was normalized to that of DMSO-treated samples. DC50 values were obtained using three-parameter non-linear regressions using Prism (GraphPad).

NCI-H1155 cells = assay: NSCLC cell viability, CellTiter-Glo, NCI-H1155 cells; assay type: cell-based; settings: Homo sapiens; NCI-H1155 cells, CellTiter-Glo, 72 hours of treatment; read-out: Cell viability classification (NCI-H1155)
[1] = DC50, GSPT1_HiBIT_HEK293 cells, 16 hours, Nano-Glo HiBiT Lytic Detection; read-out: GSPT1 degradation classification
[2] = read-out: GSPT1 degradation classification; DC50, GSPT1_HiBIT_HEK293 cells, 16 hours, Nano-Glo HiBiT Lytic Detection

GSPT1, sequence (P15170 whole entry): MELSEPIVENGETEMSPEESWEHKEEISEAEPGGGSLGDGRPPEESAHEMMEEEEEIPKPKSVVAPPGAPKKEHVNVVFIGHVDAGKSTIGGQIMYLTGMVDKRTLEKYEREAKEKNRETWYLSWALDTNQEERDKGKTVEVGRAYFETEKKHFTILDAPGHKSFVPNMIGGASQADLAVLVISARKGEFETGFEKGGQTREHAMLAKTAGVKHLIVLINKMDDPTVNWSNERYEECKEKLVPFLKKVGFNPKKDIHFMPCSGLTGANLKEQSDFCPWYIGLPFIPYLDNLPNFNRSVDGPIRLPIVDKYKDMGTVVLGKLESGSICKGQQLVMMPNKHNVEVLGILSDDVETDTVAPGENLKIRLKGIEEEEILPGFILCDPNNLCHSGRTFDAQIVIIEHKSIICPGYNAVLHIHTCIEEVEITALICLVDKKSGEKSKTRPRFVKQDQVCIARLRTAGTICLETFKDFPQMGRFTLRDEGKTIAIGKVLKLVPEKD
GSPT1, sequence (Q96SW2 whole entry): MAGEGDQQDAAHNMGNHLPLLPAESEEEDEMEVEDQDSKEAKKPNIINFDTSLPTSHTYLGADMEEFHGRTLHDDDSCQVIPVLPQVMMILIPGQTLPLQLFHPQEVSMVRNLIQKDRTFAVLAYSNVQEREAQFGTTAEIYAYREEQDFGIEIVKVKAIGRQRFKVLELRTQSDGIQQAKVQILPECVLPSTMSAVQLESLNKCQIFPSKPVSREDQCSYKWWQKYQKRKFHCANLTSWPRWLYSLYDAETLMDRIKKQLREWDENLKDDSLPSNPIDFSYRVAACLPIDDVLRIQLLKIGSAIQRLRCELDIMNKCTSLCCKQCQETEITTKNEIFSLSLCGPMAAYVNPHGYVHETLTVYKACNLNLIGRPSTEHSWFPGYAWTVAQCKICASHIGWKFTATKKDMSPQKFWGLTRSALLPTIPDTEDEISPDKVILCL
GSPT1, sequence (Q16531 whole entry partner): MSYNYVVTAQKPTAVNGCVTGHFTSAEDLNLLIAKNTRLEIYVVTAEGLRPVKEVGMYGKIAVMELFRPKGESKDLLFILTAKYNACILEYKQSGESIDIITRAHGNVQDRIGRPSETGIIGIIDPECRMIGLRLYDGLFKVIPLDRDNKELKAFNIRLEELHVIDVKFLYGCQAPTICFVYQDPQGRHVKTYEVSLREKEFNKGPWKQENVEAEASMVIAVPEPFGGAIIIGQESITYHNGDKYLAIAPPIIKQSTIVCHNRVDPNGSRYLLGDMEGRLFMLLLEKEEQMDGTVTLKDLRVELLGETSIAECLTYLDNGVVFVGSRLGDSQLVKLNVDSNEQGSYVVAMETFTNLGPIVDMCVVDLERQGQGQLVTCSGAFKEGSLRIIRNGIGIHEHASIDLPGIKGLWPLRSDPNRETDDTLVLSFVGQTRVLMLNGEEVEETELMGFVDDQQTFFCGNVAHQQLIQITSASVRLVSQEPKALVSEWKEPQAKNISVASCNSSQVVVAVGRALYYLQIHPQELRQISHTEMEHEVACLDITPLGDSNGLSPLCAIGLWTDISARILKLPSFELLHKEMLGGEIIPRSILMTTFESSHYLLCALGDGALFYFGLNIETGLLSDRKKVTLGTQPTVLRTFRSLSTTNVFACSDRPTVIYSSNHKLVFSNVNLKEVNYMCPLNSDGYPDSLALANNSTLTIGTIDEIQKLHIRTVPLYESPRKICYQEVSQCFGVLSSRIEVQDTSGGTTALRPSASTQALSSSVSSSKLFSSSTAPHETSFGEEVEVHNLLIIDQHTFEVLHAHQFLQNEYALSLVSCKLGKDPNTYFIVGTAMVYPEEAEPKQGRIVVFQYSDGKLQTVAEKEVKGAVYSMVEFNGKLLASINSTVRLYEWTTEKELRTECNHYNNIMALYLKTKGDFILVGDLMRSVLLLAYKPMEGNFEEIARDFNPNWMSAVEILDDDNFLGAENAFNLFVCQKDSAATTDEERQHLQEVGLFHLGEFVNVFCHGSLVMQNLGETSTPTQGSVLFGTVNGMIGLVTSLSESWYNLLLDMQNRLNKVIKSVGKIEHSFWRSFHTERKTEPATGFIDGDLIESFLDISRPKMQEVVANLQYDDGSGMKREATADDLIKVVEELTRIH

DC50 (GSPT1; [1]) | pIC50 (NCI-H1155 cells) | Compound | DC50 (GSPT1; [2])
100 to 300 nM | 7.00 to 8.00 | O=C1CCC(N2Cc3cc(C(=O)N4CC5(CC(c6ccc(F)cc6)C5)C4)ccc3C2=O)C(=O)N1 (centres unmarked) [Example 205, 3-(5-(6-(4-fluorophenyl)-2-azaspiro[3.3]heptane-2-carbonyl)-1-oxoisoindolin-2-yl)piperidine-2,6-dione] | 
> 1000 nM | < 6.00 | O=C1CCC(c2nc3ccc(C(=O)N4CC5(C=C(c6ccc(F)cc6)C5)C4)cc3o2)C(=O)N1 (centres unmarked) [Example 206, 3-(6-(6-(4-fluorophenyl)-2-azaspiro[3.3]hept-5-ene-2-carbonyl)benzo[d]oxazol-2-yl)piperidine-2,6-dione] | 
> 1000 nM | < 6.00 | O=C1CCC(c2nc3ccc(C(=O)N4Cc5c(F)ccc(OC(F)(F)F)c5C4)cc3o2)C(=O)N1 (centres unmarked) [Example 210, 3-(6-(4-fluoro-7-(trifluoromethoxy)isoindoline-2-carbonyl)benzo[d]oxazol-2-yl)piperidine-2,6-dione] | 
< 100 nM | > 8.00 | O=C1CCC(N2Cc3cc(C(=O)NC4CC5(C4)CC(c4ccc(F)cc4F)C5)ccc3C2=O)C(=O)N1 (centres unmarked) [Example 218, N-(6-(2,4-difluorophenyl)spiro[3.3]heptan-2-yl)-2-(2,6-dioxopiperidin-3-yl)-1-oxoisoindoline-5-carboxamide] | 
< 100 nM | > 8.00 | O=C1CCC(N2Cc3cc(C(=O)N4CC5(CC(c6ccc(C(F)(F)F)cc6)C5)C4)ccc3C2=O)C(=O)N1 (centres unmarked) [Example 230, 3-(1-oxo-5-(6-(4-(trifluoromethyl)phenyl)-2-azaspiro[3.3]heptane-2-carbonyl)isoindolin-2-yl)piperidine-2,6-dione] | 
100 to 300 nM | 7.00 to 8.00 | O=C1CCC(N2Cc3cc(C(=O)NC4CC5(C=C(c6ccc(F)cc6F)C5)C4)c(F)cc3C2=O)C(=O)N1 (centres unmarked) [Example 254, N-(6-(2,4-difluorophenyl)spiro[3.3]hept-5-en-2-yl)-2-(2,6-dioxopiperidin-3-yl)-6-fluoro-1-oxoisoindoline-5-carboxamide] | 
< 100 nM | 7.00 to 8.00 | O=C1CCC(N2Cc3cc(C(=O)NC4CC5(C4)CC(c4ccc(F)cc4F)C5)c(F)cc3C2=O)C(=O)N1 (centres unmarked) [Example 255, N-(6-(2,4-difluorophenyl)spiro[3.3]heptan-2-yl)-2-(2,6-dioxopiperidin-3-yl)-6-fluoro-1-oxoisoindoline-5-carboxamide] | 

The next lines start with the compound.

Compound | DC50 (GSPT1; [1]) | pIC50 (NCI-H1155 cells) | DC50 (GSPT1; [2])
O=C1CCC(N2Cc3cc(C(=O)N4CC5(C=C(c6cccc(F)c6)C5)C4)ccc3C2=O)C(=O)N1 (centres unmarked) [Example 207, 3-(5-(6-(3-fluorophenyl)-2-azaspiro[3.3]hept-5-ene-2-carbonyl)-1-oxoisoindolin-2-yl)piperidine-2,6-dione] |  | 7.00 to 8.00 | < 100 nM
O=C1CCC(N2Cc3cc(C(=O)N4CC5(C=C(c6ccccc6F)C5)C4)ccc3C2=O)C(=O)N1 (centres unmarked) [Example 208, 3-(5-(6-(2-fluorophenyl)-2-azaspiro[3.3]hept-5-ene-2-carbonyl)-1-oxoisoindolin-2-yl)piperidine-2,6-dione] |  | > 8.00 | < 100 nM
O=C1CCC(N2Cc3cc(C(=O)N4CC5(C=C(c6ccc(C(F)(F)F)cc6)C5)C4)ccc3C2=O)C(=O)N1 (centres unmarked) [Example 209, 3-(1-oxo-5-(6-(4-(trifluoromethyl)phenyl)-2-azaspiro[3.3]hept-5-ene-2-carbonyl)isoindolin-2-yl)piperidine-2,6-dione] |  | > 8.00 | < 100 nM
O=C1CCC(c2nc3ccc(C(=O)N4Cc5cccc(F)c5C45CC5)cc3o2)C(=O)N1 (centres unmarked) [Example 211, 3-(6-(7′-fluorospiro[cyclopropane-1,1′-isoindoline]-2′-carbonyl)benzo[d]oxazol-2-yl)piperidine-2,6-dione] | > 1000 nM | 6.00 to 7.00 | 
O=C1CCC(N2Cc3cc(C(=O)NC4CC5(C4)CC(c4ccc(F)c(F)c4)C5)ccc3C2=O)C(=O)N1 (centres unmarked) [Example 217, N-(6-(3,4-difluorophenyl)spiro[3.3]heptan-2-yl)-2-(2,6-dioxopiperidin-3-yl)-1-oxoisoindoline-5-carboxamide] | 100 to 300 nM | 7.00 to 8.00 | 
N#Cc1ccc(C2CC3(CC(NC(=O)c4ccc5c(c4)CN(C4CCC(=O)NC4=O)C5=O)C3)C2)cc1 (centres unmarked) [Example 219, N-(6-(4-cyanophenyl)spiro[3.3]heptan-2-yl)-2-(2,6-dioxopiperidin-3-yl)-1-oxoisoindoline-5-carboxamide] | 100 to 300 nM | 7.00 to 8.00 | 
O=C1CCC(N2Cc3cc(C(=O)NC4CC5(C4)CC(c4ccc(C(F)(F)F)cc4)C5)ccc3C2=O)C(=O)N1 (centres unmarked) [Example 226, 2-(2,6-dioxopiperidin-3-yl)-1-oxo-N-(6-(4-(trifluoromethyl)phenyl)spiro[3.3]heptan-2-yl)isoindoline-5-carboxamide] | 100 to 300 nM | 7.00 to 8.00 | 
Cc1ccc(C2CC3(CC(NC(=O)c4ccc5c(c4)CN(C4CCC(=O)NC4=O)C5=O)C3)C2)cc1 (centres unmarked) [Example 227, 2-(2,6-dioxopiperidin-3-yl)-1-oxo-N-(6-(p-tolyl)spiro[3.3]heptan-2-yl)isoindoline-5-carboxamide] |  | > 8.00 | < 100 nM
Cc1ccc(C2CC3(C2)CN(C(=O)c2ccc4c(c2)CN(C2CCC(=O)NC2=O)C4=O)C3)cc1 (centres unmarked) [Example 231, 3-(1-oxo-5-(6-(p-tolyl)-2-azaspiro[3.3]heptane-2-carbonyl)isoindolin-2-yl)piperidine-2,6-dione] | < 100 nM | > 8.00 | 
O=C1CCC(N2Cc3cc(C(=O)N4CC5(C=C(c6ccc(F)cc6F)C5)C4)ccc3C2=O)C(=O)N1 (centres unmarked) [Example 235] |  | > 8.00 | < 100 nM
Cc1ccc(C2=CC3(C2)CN(C(=O)c2ccc4c(c2)CN(C2CCC(=O)NC2=O)C4=O)C3)cc1 (centres unmarked) [Example 236, 3-(1-oxo-5-(6-(p-tolyl)-2-azaspiro[3.3]hept-5-ene-2-carbonyl)isoindolin-2-yl)piperidine-2,6-dione] |  | > 8.00 | < 100 nM
O=C1CCC(N2Cc3cc(C(=O)N4CC5(C=C(c6ccc(C(F)(F)F)c(F)c6)C5)C4)ccc3C2=O)C(=O)N1 (centres unmarked) [Example 240, 3-(5-(6-(3-fluoro-4-(trifluoromethyl)phenyl)-2-azaspiro[3.3]hept-5-ene-2-carbonyl)-1-oxoisoindolin-2-yl)piperidine-2,6-dione] |  | > 8.00 | < 100 nM
O=C1CCC(N2Cc3cc(C(=O)N4CC5(C=C(c6ccc(C(F)(F)F)cc6F)C5)C4)ccc3C2=O)C(=O)N1 (centres unmarked) [Example 241, 3-(5-(6-(2-fluoro-4-(trifluoromethyl)phenyl)-2-azaspiro[3.3]hept-5-ene-2-carbonyl)-1-oxoisoindolin-2-yl)piperidine-2,6-dione] |  | 7.00 to 8.00 | < 100 nM
O=C1CCC(N2Cc3cc(C(=O)NC4CC5(C4)CC(c4ccc(C(F)(F)F)cc4F)C5)ccc3C2=O)C(=O)N1 (centres unmarked) [Example 258, 2-(2,6-dioxopiperidin-3-yl)-N-(6-(2-fluoro-4-(trifluoromethyl)phenyl)spiro[3.3]heptan-2-yl)-1-oxoisoindoline-5-carboxamide] | 100 to 300 nM | 6.00 to 7.00 | 
O=C1CCC(N2Cc3cc(C(=O)N4Cc5c(Cl)ccc(C(F)(F)F)c5C4)ccc3C2=O)C(=O)N1 (centres unmarked) [Example 261, 3-(5-(4-chloro-7-(trifluoromethyl)isoindoline-2-carbonyl)-1-oxoisoindolin-2-yl)piperidine-2,6-dione] |  | 7.00 to 8.00 | 100 to 300 nM
